According to patent US11472766B2, “Lipid nanoparticle composition” (Suzhou Abogen Biosciences Co., Ltd., priority 2020, dated 2022):

What was measured:
[1] = Lipid nanoparticle size by dynamic light scattering (Malvern Zetasizer Nano ZS); type: physicochemical; conditions: LNP: cationic lipid/DSPC/cholesterol/PEG-lipid 50:10:38.5:1.5, hEPO mRNA; Table 3
How it was run: (§1)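 LNPs of cationic lipid:DSPC:cholesterol:PEG-lipid (50:10:38.5:1.5 molar) with mRNA in 10–50 mM citrate pH 4, microfluidic mixing at 1:3 ethanol:aqueous, lipid:mRNA weight ratio ~10:1–30:1, dialysed into DPBS and 0.2 μm filtered. Size by DLS, 173° backscatter; encapsulation efficiency by Ribogreen assay.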

[2] = Encapsulation efficiency of lipid nanoparticles (Quant-it Ribogreen RNA quantification assay); type: physicochemical; conditions: LNP encapsulating hEPO mRNA; Table 3
How it was run: as §1

[3] = system: human erythropoietin (hEPO) mRNA; assay: Animal study: hEPO expression after tail vein injection of LNPs encapsulating hEPO mRNA (serum ELISA); type: in vivo; conditions: hEPO level, female ICR mice, 0.5 mg/kg, 6 hours post administration, class symbols, Table 3
How it was run: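 Female ICR mice (6-8 weeks) received LNPs carrying hEPO mRNA by tail vein injection at 0.5 mg/kg, with MC3 LNPs dosed the same way as positive control. Blood was drawn at set times (e.g., 6 h) and serum separated. hEPO was quantified by ELISA and reported as μg/ml.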

[4] = Apparent pKa of LNP formulations (TNS fluorescence assay); conditions: LNP cationic lipid/DSPC/cholesterol/DMG-PEG 50/10/38.5/1.5 mol %, Table 3

SMILES | polydispersity [1] | size nm [1] [nm] | Encapsulation Efficiency [2] [%] | Apparant Pka [4] | Expression at 6 h (μg/ml) [3]
CCCCC(CCCC)CCCCCC(=O)OCCCCCN(CCCCCOC(=O)CCCCCC(CCCC)CCCC)CCN(CCO)C1CCC1 [Compound 85] | 0.065 | 82.91 | 93.7 | 6.46 | B (≥1 and <2)
CCCCCCCCC(CCCCCC)COC(=O)CCCCCN(CCCCCC(=O)OCC(CCCCCC)CCCCCCCC)CCN(C1CCC1)C1CCC(O)CC1 (stereo not drawn) [Compound 93] | 0.041 | 93.74 | 98.3 | 6.491 | A (≥2)
CCCCC/C=C\CCCC(=O)C(CC/C=C\CCCCC)C(CCC/C=C\CCCCC)OC(=O)CCCCCN(CCO)CCCCCC(=O)OCCC/C=C/CCCCC (stereo not drawn) [Compound 100] | 0.208 | 58.6 | 87.7 | 6.187 | C (≥0.1 and <1)
CCCCC/C=C\CCCC(=O)C(CC/C=C\CCCCC)C(CCC/C=C\CCCCC)OC(=O)CCCCCN(CCCCCC(=O)OCCC/C=C/CCCCC)CCN(CCO)C1CCC1 (stereo not drawn) [Compound 101] | 0.067 | 72 | 85.5 | 6.071 | B (≥1 and <2)
CCCCCCCCC(CCCCCC)CC(=O)NCCCCCN(CCCCCNC(=O)CC(CCCCCC)CCCCCCCC)CCN(CCO)C1CCC1 (stereo not drawn) [Compound 105] | 0.042 | 92.4 | 93.3 | 6.698 | A (≥2)
CCCCCCCCC(CCCCCC)CNC(=O)CCCCCN(CCCCCC(=O)NCC(CCCCCC)CCCCCCCC)CCN(CCO)C1CC1 (stereo not drawn) [Compound 110] | 0.063 | 91.1 | 90.0 | 6.696 | C (≥0.1 and <1)
CCCCCCCCC(CCCCCC)CC(=O)NCCCCCN(CCCCCNC(=O)CC(CCCCCC)CCCCCCCC)CCN(CCO)C1CC1 (stereo not drawn) [Compound 113] | 0.04 | 90 | 91.2 | 6.728 | A (≥2)
CCCCCCCCC(CCCCCC)CC(=O)NCCCCCN(CCCCCNC(=O)CC(CCCCCC)CCCCCCCC)CCN(CCO)C1CCCC1 (stereo not drawn) [Compound 114] | 0.025 | 87.92 | 89.3 | 6.695 | A (≥2)
CCCCCCCCC(CCCCCC)CC(=O)NCCCCCN(CCCCCNC(=O)CC(CCCCCC)CCCCCCCC)CCN(CCO)C1CCCCCC1 (stereo not drawn) [Compound 116] | 0.201 | 79.28 | 94.5 | 6.795 | A (≥2)

Now from value to compound, other results behind:

polydispersity [1] | size nm [1] [nm] | Encapsulation Efficiency [2] [%] | Apparant Pka [4] | SMILES | Expression at 6 h (μg/ml) [3]
0.083 | 65.55 | 93.2 | 6.064 | CCCCCCCCCCCOC(=O)CCCCCN(CCCCCC(=O)OCC(CCCCCCCC)CCCCCCCC)CCN(CCO)C1CCCCCC1 [Compound 84] | B (≥1 and <2)
– | 76.56 | 93.8 | 6.32 | CCCCCCC(CCCCCC)CCCCCC(=O)OCCCCCN(CCCCCOC(=O)CCCCCC(CCCCCC)CCCCCC)CCN(CCO)C1CCC1 [Compound 86] | C (≥0.1 and <1)
0.037 | 65.71 | 91.2 | 6.515 | CCCCCCCCC(CCCCCCCC)COC(=O)CCCCCN(CCCCCC(=O)OCC(CCCCCCCC)CCCCCCCC)CCN(CCO)C1CCOC1 (stereo not drawn) [Compound 87] | A (≥2)
0.21 | 66.89 | 97.2 | 7.41 | CCCCCCCCC(CCCCCC)COC(=O)CCCCCN(CCCCCC(=O)OCC(CCCCCC)CCCCCCCC)CCN(CCO)C1COC1 (stereo not drawn) [Compound 88] | D (<0.1)
0.028 | 84.53 | 94.6 | 6.7 | CCCCCCCCC(CCCCCC)COC(=O)CCCCCN(CCCCCC(=O)OCC(CCCCCC)CCCCCCCC)CCN(CCO)C1CCOCC1 (stereo not drawn) [Compound 89] | A (≥2)
0.067 | 72 | 97.3 | 6.6 | CCCCCCCCC(CCCCCC)COC(=O)CCCCCN(CCCCCC(=O)OCC(CCCCCC)CCCCCCCC)CCN(CCO)C1CCOC1 (stereo not drawn) [Compound 90] | B (≥1 and <2)
0.106 | 62.06 | 92.1 | 6.257 | CCCCCCCCC(CCCCCC)COC(=O)CCCCCN(CCCCCC(=O)OCC(CCCCCC)CCCCCCCC)CCN(CCO)C1CCSCC1 (stereo not drawn) [Compound 91] | B (≥1 and <2)
0.04 | 66.94 | 95.2 | 6.331 | CCCCCCCCC(CCCCCC)COC(=O)CCCCCN(CCCCCC(=O)OCC(CCCCCC)CCCCCCCC)CCN(C1CCCCC1)C1CC(O)C1 (stereo not drawn) [Compound 92] | B (≥1 and <2)
0.004 | 70.49 | 94.10 | 6.406 | CCCCCCCCC(CCCCCCCC)COC(=O)CCOCCN(CCOCCC(=O)OCC(CCCCCCCC)CCCCCCCC)CCN(CCO)C1CCC1 [Compound 102] | B (≥1 and <2)
0.022 | 70.93 | 89.96 | 6.184 | CCCCCCCCC(CCCCCCCC)COC(=O)CCOCCN(CCOCCC(=O)OCC(CCCCCCCC)CCCCCCCC)CCN(CCO)C1CCCCC1 [Compound 104] | A (≥2)
0.064 | 80.78 | 95.6 | 6.711 | CCCCCCCCC(CCCCCC)CC(=O)NCCCCCN(CCCCCOC(=O)CC(CCCCCC)CCCCCCCC)CCN(CCO)C1CCC1 (stereo not drawn) [Compound 108] | A (≥2)
0.06 | 73.52 | 97.6 | 6.633 | CCCCCCCCC(CCCCCC)CNC(=O)CCCCCN(CCCCCC(=O)OCC(CCCCCC)CCCCCCCC)CCN(CCO)C1CC1 (stereo not drawn) [Compound 109] | A (≥2)
0.049 | 92.3 | 89.0 | 6.668 | CCCCCCCCC(CCCCCC)CNC(=O)CCCCCN(CCCCCC(=O)NCC(CCCCCC)CCCCCCCC)CCN(CCO)C1CCCC1 (stereo not drawn) [Compound 111] | B (≥1 and <2)
0.117 | 65.12 | 98.2 | 6.732 | CCCCCCCCC(CCCCCC)CC(=O)NCCCCCN(CCCCCNC(=O)CC(CCCCCC)CCCCCCCC)CCN(CCO)C1CCCCC1 (stereo not drawn) [Compound 115] | A (≥2)
